Laboratory results taken from patent US10464896B2, “Efflux-pump inhibitors and therapeutic uses thereof” (Basilea Pharmaceutica International AG, priority 2015, dated 2019).

system: E. coli ATCC25922; assay: Antibacterial activity in combination with minocycline (growth inhibition); assay type: cell-based; settings: Escherichia coli, ATCC25922, compound at 25 μM; minocycline 0.25 μg/mL; OD625 23 h minus 1 h; read-out: residual growth of E. coli ATCC25922 (% of uninhibited control) with minocycline
How it was run: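 Test compound combined with fixed subinhibitory partner antibiotic: linezolid 128 μg/mL for either strain, minocycline 0.25 μg/mL (E. coli) or 8 μg/mL (P. aeruginosa), in caMHB shaken at 37 °C. Residual growth as % of inhibitor-free control, from OD625 at 23 h minus 1 h.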

| Structure (SMILES) | activity at 25 µM |
| --- | --- |
| C=CCOc1cc(/C=C/c2csc(C(C)C)n2)cc(CNCC2CNC2)c1 [Example 327] | ≤ 10% |
| C=CCOc1cc(/C=C/c2c(C#N)cccc2C(F)(F)F)cc(CNCC2CNC2)c1 [Example 328] | ≤ 10% |
| C=CCOc1cc(/C=C/c2cc(C#N)ccn2)cc(CNCC2CCNC2)c1 (centres unmarked) [Example 329] | ≤ 10% |
| C=CCOc1cc(/C=C/c2csc(C(C)C)n2)cc(CNCC2CCNC2)c1 (centres unmarked) [Example 330] | ≤ 10% |
| CC(C)COc1cc(/C=C/c2ccccn2)cc(CNCC2CCNC2)c1 (centres unmarked) [Example 333] | ≤ 10% |
| CC(C)COc1cc(/C=C/c2ccncc2)cc(CNCC2CCNC2)c1 (centres unmarked) [Example 334] | ≤ 10% |
| C=CCOc1cc(/C=C/c2cccnc2)cc(CNCC2CNC2)c1 [Example 335] | ≤ 10% |
| C=CCOc1cc(/C=C/c2ccccn2)cc(CNCC2CNC2)c1 [Example 336] | ≤ 10% |
| C=CCOc1cc(/C=C/c2ccncc2)cc(CNCC2CNC2)c1 [Example 338] | ≤ 10% |
| C=CCOc1cc(/C=C/c2ccc(C(N)=O)cc2)cc(CNCC2CNC2)c1 [Example 339] | ≤ 10% |
| C=CCOc1cc(/C=C/c2cccc(C(N)=O)c2)cc(CNCC2CNC2)c1 [Example 340] | ≤ 10% |
| Clc1ccc(/C=C/c2cc(CNCC3CCNC3)cc(OCCc3ccccn3)c2)c(Br)c1 (centres unmarked) [Example 341] | ≤ 10% |
| NC(=O)COc1cc(/C=C/c2ccc(Cl)cc2Br)cc(CNCC2CCNC2)c1 (centres unmarked) [Example 342] | ≤ 10% |
| Clc1ccc(/C=C/c2cc(CNCC3CCNC3)cc(OCc3c[nH]cn3)c2)c(Br)c1 (centres unmarked) [Example 344] | ≤ 10% |
| Cn1cnc(COc2cc(/C=C/c3ccc(Cl)cc3Br)cc(CNCC3CCNC3)c2)c1 (centres unmarked) [Example 345] | ≤ 10% |
| Clc1ccc(/C=C/c2cc(CNCC3CCNC3)cc(OCc3ccccn3)c2)c(Br)c1 (centres unmarked) [Example 346] | ≤ 10% |
| Cc1cc(COc2cc(/C=C/c3ccc(Cl)cc3Br)cc(CNCC3CCNC3)c2)no1 (centres unmarked) [Example 347] | ≤ 10% |
| C=CCOc1cc(/C=C/c2nc(C(F)(F)F)cs2)cc(CNCC2CNC2)c1 [Example 348] | ≤ 10% |
| C=CCOc1cc(/C=C/c2ccc(Cl)cc2Br)cc(CNC(=O)C2CCNCC2)c1 [Example 354, N-[[3-allyloxy-5-[(E)-2-(2-bromo-4-chloro-phenyl)vinyl]phenyl]methyl]piperidine-4-carboxamide] | ≤ 10% |
| C=CCOc1cc(/C=C/c2nc(C3CC3)cs2)cc(CNCC2CCNC2)c1 (centres unmarked) [Example 355] | ≤ 10% |
| C=CCOc1cc(/C=C/c2nc(C3CC3)cs2)cc(CNCC2CNC2)c1 [Example 356] | ≤ 10% |
| C=CCOc1cc(CNCC2CCNC2)cc(CNC(=O)c2ccc(C(C)(C)C)cc2)c1 (centres unmarked) [Example 357] | ≤ 10% |

| Structure (SMILES) | activity at 25 µM |
| --- | --- |
| Cc1nc(COc2cc(/C=C/c3ccc(Cl)cc3Br)cc(CNCC3CCNC3)c2)cs1 (centres unmarked) [Example 359] | ≤ 10% |
| Clc1ccc(/C=C/c2cc(CNCC3CCNC3)cc(OCc3ccncc3)c2)c(Br)c1 (centres unmarked) [Example 360] | ≤ 10% |
| Nc1nc(COc2cc(/C=C/c3ccc(Cl)cc3Br)cc(CNCC3CCNC3)c2)cs1 (centres unmarked) [Example 361] | ≤ 10% |
| C=CCOc1cc(/C=C/c2nc(C(C)C)cs2)cc(CNCC2CNC2)c1 [Example 362] | ≤ 10% |
| C=CCOc1cc(CNCC2CCNC2)cc(CNS(=O)(=O)c2ccc(C(C)(C)C)cc2)c1 (centres unmarked) [Example 364] | ≤ 10% |
| C=CCOc1cc(/C=C/c2ccc(Cl)cc2Br)cc(CNC(=O)[C@@H]2CCNC2)c1 [Example 367] | ≤ 10% |
| C=CCOc1cc(CNCC2CNC2)cc(CNS(=O)(=O)c2ccc(C(C)(C)C)cc2)c1 [Example 369, N-[[3-allyloxy-5-[(azetidin-3-ylmethylamino)methyl]phenyl]methyl]-4-tert-butyl-benzenesulfonamide] | ≤ 10% |
| C=CCOc1cc(CNCC2CNC2)cc(C(=O)NCc2ccc(Cl)cc2Br)c1 [Example 370] | ≤ 10% |
| C=CCOc1cc(/C=C/c2ccc(Cl)cc2Br)cc(CNC(=O)CNCC2CNC2)c1 [Example 371] | ≤ 10% |
| C=CCOc1cc(CNCC2CCNC2)cc(C(=O)Nc2ccc(Cl)cc2Br)c1 (centres unmarked) [Example 373] | ≤ 10% |
| CC(C)COc1cc(/C=C/c2ccccc2C(N)=O)cc(CNCC2CCNC2)c1 (centres unmarked) [Example 375] | ≤ 10% |
| C=CCOc1cc(CNCC2CNC2)cc(CNC(=O)c2ccc(Cl)cc2Br)c1 [Example 376] | ≤ 10% |
| CC(C)(C)c1ccc(S(=O)(=O)NCc2cc(CNCC3CCNC3)cc(OCCc3c[nH]cn3)c2)cc1 (centres unmarked) [Example 377] | ≤ 10% |
| C=CCOc1cc(CNCC2CCNC2)cc(C(=O)NCc2ccc(Cl)cc2Br)c1 (centres unmarked) [Example 380] | ≤ 10% |
| O=c1[nH]nc(COc2cc(/C=C/c3ccc(Cl)cc3Br)cc(CNCC3CCNC3)c2)o1 (centres unmarked) [Example 381] | ≤ 10% |
| CC(C)COc1cc(C[N+](C)(C)CC2CNC2)cc(OCc2ccc(Cl)cc2Br)c1 [Example 382] | ≤ 10% |
| C=CCOc1cc(C[N+](C)(C)CC2CCNC2)cc(OCc2ccc(Cl)cc2Br)c1 (centres unmarked) [Example 388] | ≤ 10% |
| NC(=O)CCOc1cc(/C=C/c2ccc(Cl)cc2Br)cc(CNCC2CCNC2)c1 (centres unmarked) [Example 390] | ≤ 10% |
| C=CCOc1cc(CNCC2CNC2)cc(C(=O)Nc2nc(C(C)(C)C)cs2)c1 [Example 392] | ≤ 10% |
| C=CCOc1cc(CNCC2CNC2)cc(C(=O)Nc2ccc(Cl)cc2Br)c1 [Example 394, 3-allyloxy-5-[(azetidin-3-ylmethylamino)methyl]-N-(2-bromo-4-chloro-phenyl)benzamide] | ≤ 10% |
| C=CCOc1cc(C[N+](C)(C)CC2CNC2)cc(OCc2ccc(Cl)cc2Br)c1 [Example 395] | ≤ 10% |
| C=CCOc1cc(/C=C/c2ccc(Cl)cc2Br)cc(C[N+](C)(C)CC2CCNC2)c1 (centres unmarked) [Example 396] | ≤ 10% |

| Structure (SMILES) | activity at 25 µM |
| --- | --- |
| CC(C)COc1ccc(/C=C/c2ccc(Br)cc2Cl)cc1CNCC1CCNC1 (centres unmarked) [Example 397] | ≤ 10% |
| C[N+](C)(Cc1cc(/C=C/c2ccc(Cl)cc2Br)cc(OCCc2c[nH]cn2)c1)CC1CCNC1 (centres unmarked) [Example 398] | ≤ 10% |
| CC(C)(C)c1ccc(S(=O)(=O)Nc2ccc(CNCC3CCNC3)cc2OCCc2c[nH]cn2)cc1 (centres unmarked) [Example 399, 4-tert-butyl-N-[2-[2-(1H-imidazol-4-yl)ethoxy]-4-[(pyrrolidin-3-ylmethylamino)methyl]phenyl]benzenesulfonamide] | ≤ 10% |
| CC(C)COc1ccc(/C=C/c2ccc(Br)cc2Cl)cc1CNCC1CNC1 [Example 401] | ≤ 10% |
| C=CCOc1cc(/C=C/c2ccc(Cl)cc2Br)cc(C[N+](C)(C)CC2CNC2)c1 [Example 402] | ≤ 10% |
| C=CCOc1ccc(OCc2ccc(Br)cc2Cl)cc1CNCC1CCNC1 (centres unmarked) [Example 405] | ≤ 10% |
| C=CCOc1ccc(OCc2ccc(Br)cc2Cl)cc1CNCC1CNC1 [Example 406] | ≤ 10% |
| C=CCOc1ccc(/C=C/c2ccc(Br)cc2Cl)cc1CNCC1CCNC1 (centres unmarked) [Example 407] | ≤ 10% |
| C[N+](C)(Cc1cc(/C=C/c2ccc(Cl)cc2Br)cc(OCCc2c[nH]cn2)c1)CC1CNC1 [Example 408] | ≤ 10% |
| C=CCOc1ccc(OCc2ccc(Cl)cc2Br)cc1CNCC1CCNC1 (centres unmarked) [Example 412] | ≤ 10% |
| C=CCOc1ccc(OCc2ccc(Cl)cc2Br)cc1CNCC1CNC1 [Example 413] | ≤ 10% |
| CC(C)COc1ccc(OCc2ccc(Cl)cc2Br)cc1CNCC1CCNC1 (centres unmarked) [Example 416] | ≤ 10% |
| C=CCOc1ccc(/C=C/c2ccc(Cl)cc2Br)cc1CNCC1CCNC1 (centres unmarked) [Example 419] | ≤ 10% |
| C=CCOc1ccc(/C=C/c2ccc(Cl)cc2Br)cc1CNCC1CNC1 [Example 421] | ≤ 10% |
| CC(C)COc1ccc(OCc2ccc(Cl)cc2Br)cc1CNCC1CNC1 [Example 422] | ≤ 10% |
| O=c1[nH]nc(CCOc2cc(/C=C/c3ccc(Cl)cc3Br)cc(CNCC3CCNC3)c2)o1 (centres unmarked) [Example 429] | ≤ 10% |
| Cc1noc(C)c1CCOc1cc(/C=C/c2ccc(Cl)cc2Br)cc(CNCC2CCNC2)c1 (centres unmarked) [Example 430] | ≤ 10% |
| CC(C)COc1ccc(/C=C/c2ccc(Cl)cc2Br)cc1CNCC1CCNC1 (centres unmarked) [Example 431] | ≤ 10% |
| Cc1n[nH]c(C)c1CCOc1cc(/C=C/c2ccc(Cl)cc2Br)cc(CNCC2CCNC2)c1 (centres unmarked) [Example 433] | ≤ 10% |
| C=CCOc1cc(/C=C/c2ccc(Cl)cc2Br)cc(CNCC(=O)NCC2CNC2)c1 [Example 443] | ≤ 10% |

same assay, conditions: Escherichia coli, ATCC25922, compound at 50 μM; minocycline 0.25 μg/mL; OD625 23 h minus 1 h; read-out: residual growth of E. coli ATCC25922 (% of uninhibited control) with minocycline

| Structure (SMILES) | activity at 50 µM |
| --- | --- |
| Clc1ccc(/C=C/c2cc(CNCC3CCNC3)cc(OCc3ccccn3)c2)c(Br)c1 (centres unmarked) [Example 346] | ≤ 50% |
| O=C(NCc1cc(CNCC2CCNC2)cc(OCCc2c[nH]cn2)c1)c1nc(C2CC2)cs1 (centres unmarked) [Example 391] | ≤ 50% |
| O=C(NCc1cc(CNCC2CCNC2)cc(OCCc2c[nH]cn2)c1)c1ccc(Cl)cc1Br (centres unmarked) [Example 393] | ≤ 50% |
| C=CCOc1cc(CNCC2CNC2)cc(OCCc2ccccn2)c1 [Example 409] | ≤ 50% |
| C=CCOc1cc(CNCC2CCNC2)cc(OCCc2ccccn2)c1 (centres unmarked) [Example 410] | ≤ 50% |
| C=CCOc1cc(CNCC2CNC2)cc(OCCc2cccnc2)c1 [Example 414] | ≤ 50% |
| C=CCOc1cc(CNCC2CCNC2)cc(OCc2cccnc2)c1 (centres unmarked) [Example 417] | ≤ 50% |
| C=CCOc1cc(CNCC2CCNC2)cc(OCCc2cccnc2)c1 (centres unmarked) [Example 418] | ≤ 50% |
| C=CCOc1cc(CNCC2CNC2)cc(OCCc2ccncc2)c1 [Example 423] | ≤ 50% |
| C(=C\c1cc(CNCC2CNC2)cc(OCCc2ccncc2)c1)/c1cccnc1 [Example 438] | ≤ 50% |
